Measured values from patent EP0039037A1, “Pyrimidylthio-ureas, medicines containing them and their use” (Beiersdorf Aktiengesellschaft, priority 1980, dated 1981).

Key:
hyperlipidämische Mäuse = assay: Lipid-lowering effect in hyperlipidaemic mice (method analogous to Turner, Screening Methods in Pharmacology, and Garattini et al.); format: in vivo
Description: Die lipidsenkende Wirkung von N. (4,6-Dimethoxy-5-pyrimidyl)-thioharnstoff wurde an hyperliprdämischen Mausen analog einer Untersuchungsmethode, wie in "Screening Methods in Pharmacology", Robert A. Turner, 1965, Academic Press, New York and London, und Garattini et al, Arzneimittelforschung 9, 206 (1959), angegeben, untersucht. Die Verbindung wurde in einer Menge von 10 mg/kg peroral verabreicht. Es wurde eine Senkung des Cholesterinspiegels von 25 % und eine Senkung der Triglyceride von 27% erzielt.
(§1) Es wurde die lipid- und blutdrucksenkende Wirkung von N-(2,4-DimethoxY-5-pyrimidyl)-thioharnstoff untersucht. Als Yersuchsziere. wurden hyperlipidämische Mäuse und spontan hypertensive Ratten verwendet.
Bei den Mäusen wurde eine Verabreichungsdosis von 100 mg/ kg peroral verwendet, wobei eine Senkung des Cholesterinspiegels von 38 % und eine Senkung der Triglyceride von 49 % erreicht wurde.

[1] = tested on: spontan hypertensive Ratten; assay: Blood-pressure-lowering effect in spontaneously hypertensive rats; format: in vivo; conditions: 30 mg/kg peroral
Description: as §1
Bei den Ratten wurde eine Dosis von 30 mg/kg peroral verabreicht, wobei eine Blutdrucksenkung von 30 % erzielt wurde.
Es wurde die blutdrucksenkende Wirkung von N-(4,6-Dimethoxy-2-methyl-5-pyrimidyl)-thioharnstoff bei spontan hypertensiven Ratten untersucht. Den Ratten wurde die Verbindung in einer Dosis von 30 mg/kg peroral verabreicht. Damit wurde eine Blutdrucksenkung von 30 % erzielt.

| Compound | Senkung der Triglyceride (hyperlipidämische Mäuse; 100 mg/kg peroral) [%] | Senkung des Cholesterinspiegels (hyperlipidämische Mäuse; 100 mg/kg peroral) [%] | Blutdrucksenkung [1] [%] | Senkung der Triglyceride (hyperlipidämische Mäuse; 10 mg/kg peroral) [%] | Senkung des Cholesterinspiegels (hyperlipidämische Mäuse; 10 mg/kg peroral) [%] |
| --- | --- | --- | --- | --- | --- |
| COc1ncc(NC(N)=S)c(OC)n1 [N-(2,4-Dimethoxy-5-pyrimidyl)-thioharnstoff] | 49 | 38 | 30 | – | – |
| COc1nc(C)nc(OC)c1NC(N)=S [N-(4,6-Dimethoxy-2-methyl-5-pyrimidyl)-thioharnstoff] | – | – | 30 | – | – |
| COc1ncnc(OC)c1NC(N)=S [N-(4,6-Dimethoxy-5-pyrimidyl)-thioharnstoff] | – | – | – | 27 | 25 |
